Data set [1] concerns myocardial ischemia. As to the kind of experiment: imaging agent 1 and ^82Rb PET versus ^99mTc sestamibi SPECT, perfusion defect assessment (phase II). Type of data set: in vivo, human. Here is the method:
Twenty-six patients (20 men) who underwent ^99mTc sestamibi SPECT and imaging agent 1 PET within 6 months at a single center in a phase II clinical trial were compared to 23 patients (matched by summed difference score (SDS) on SPECT) who underwent ^99mTc sestamibi SPECT and ^82Rb PET (25-50 mCi) within 6 months without change in clinical state. PET was performed with imaging agent 1 at rest (2.3-3.9 mCi) followed 60 min or 24 h later with exercise or adenosine stress (7.3-8.6 mCi). Perfusion defects on SPECT and PET were assessed by computer-assisted visual interpretation, using the standard 17 segment, 5 point-scoring model (0=normal; 4=absent uptake). The extent and severity of ischemia (SDS) was derived from the difference between summed stress score (SSS) and summed rest scores (SRS).
Twenty six patients (20 men) underwent SPECT and PET within 6-months. PET was performed with imaging agent 1 at rest (2.3-3.9 mCi) followed 60 min (n=18) or 24 h (n=8) later with exercise (n=16) or adenosine (n=10) stress (7.3-8.6 mCi). Image quality of SPECT and PET was consensually assessed by 2 independent blinded readers and graded as excellent, good, or fair. Stress and rest perfusion defects on SPECT and PET were assessed by the same readers by computer-assisted visual interpretation, using the standard 17 segment, 5 point-scoring model (0=normal; 4=absent uptake). The extent and severity of ischemia (summed difference score (SDS)) was derived from the difference between summed stress (SSS) and summed rest scores (SRS). Image quality with PET was excellent in 24 and good in 2 patients. In contrast, there were 7 excellent, 18 good, and 1 fair quality study, p<0.001 by SPECT. In 14 patients with abnormal SPECT (SSS≥4), mean SDS was greater with PET than with SPECT (9.6±1.8 vs. 5.4±0.7, p=0.02). In all 12 patients with normal SPECT (SSS<4), SDS was zero by PET and SPECT.

Data set [2] concerns stress induced myocardial perfusion abnormalities. As to the kind of experiment: rest-stress imaging agent 1 PET versus Tc-99m Sestamibi SPECT MPI, single center. Particulars: myocardial segments supplied by diseased coronary arteries, 13 patients. Type of data set: in vivo, human. Here is the method:
Thirteen patients, from a single center, underwent rest-stress Tc-99m Sestamibi SPECT MPI, rest-stress imaging agent 1 PET MPI and coronary angiography. In each patient, 17 myocardial segments were visually scored for rest and stress images by independent observers who were blinded to all other results. For each patient, summed stress scores (SSS), summed rest scores (SRS), and summed difference scores (SDS) were determined from segmental scores. Percent narrowing in each coronary artery was evaluated blindly and 70% luminal diameter narrowing was considered significant.

In data set [3] the test system is blood brain barrier (BBB). As to the kind of experiment: brain uptake with and without blood brain barrier disruption. It is filed as in vivo, rat. Here is the method:
Male Sprague-Dawley rats were anesthetized with sodium pentobarbital and the left external carotid artery was cannulated close to the internal and external carotid bifurcation. Using saline as control and 25% D-mannitol as hypertonic solution, each were perfused retrogradely in six animals (0.3 mL/kg/sec) for 30 seconds. Two minutes later, ˜1 mCi imaging agent 1 was injected via tail vein and the brain was imaged with a microPET camera for 30 minutes. […] Following completion of imaging, the brain was harvested, photographed and dissected into left and right hemispheres and cerebellum. The tissue content of imaging agent 1 radioactivity was measured by gamma counter and Evans blue levels were determined by fluorescence method for calculation of the % injected dose/gram tissue and μg Evan blue/gram tissue, respectively.

The mark [4] stands for this setting: matched group of 13 patients with abnormal SPECT (^82Rb PET group).
Setting [5] is: 25% D-mannitol compared to saline control.

On to `[C-]#[N+]CC(C)(C)OC.[C-]#[N+]CC(C)(C)OC.[C-]#[N+]CC(C)(C)OC.[C-]#[N+]CC(C)(C)OC.[C-]#[N+]CC(C)(C)OC.[C-]#[N+]CC(C)(C)OC.[Tc]` [^99mTc sestamibi], for which, in data set [1] (12 patients with normal SPECT (SSS<4)), the SDS entry is reported as “zero”. Moreover, the “mean SDS (summed difference score)” value in data set [1] (14 patients with abnormal SPECT (SSS≥4)) was 5.4±0.7. Besides, in data set [1] (26 patients, 2 blinded readers), the “image quality excellent, number of patients” value came to 7; the “image quality fair, number of patients” value was found to be 1; the “image quality good, number of patients” value is reported as 18. Further, the “mean SDS (summed difference score)” value in data set [1] (setting [4]) is listed as 4.6±1.3. In data set [2], this molecule showed an SDS of 5.4 ± 4.2, an SRS of 3.1 ± 3.3 and an SSS of 8.6 ± 5.8.
With `[82Rb+].[Cl-]` [^82Rb, rubidium-82 (^82Rb) chloride], the “mean SDS (summed difference score)” value in data set [1] (setting [4]) amounted to 4.9±1.4. Besides, the “differences in SDS, PET compared to SPECT” value in data set [1] (patients with normal SPECT (SSS<4)) is on record as “no differences”.
Consider `Cc1cc(-c2ccc(/N=N/c3ccc4c(S(=O)(=O)O)cc(S(=O)(=O)O)c(N)c4c3O)c(C)c2)ccc1/N=N/c1ccc2c(S(=O)(=O)O)cc(S(=O)(=O)O)c(N)c2c1O` [Evans blue], for which, in data set [3] (setting [5]), the “increase in uptake, cerebellum” value was 186%; the “increase in uptake, left hemisphere” value was determined as 633%; the “increase in uptake, right hemisphere” value came to 216%. In data set [3] (BBBD (25% D-mannitol) rats), the “Brain uptake, cerebellum” value worked out at 83 ± 12 µg/g; the “Brain uptake, left hemisphere” value came out at 154 ± 13 µg/g; the “Brain uptake, right hemisphere” value worked out at 60 ± 8 µg/g. In data set [3] (control (saline) rats), the “Brain uptake, cerebellum” value is 29 ± 4 µg/g; the “Brain uptake, left hemisphere” value is 21 ± 2 µg/g; the “Brain uptake, right hemisphere” value came to 19 ± 2 µg/g.

(Values after US10842892B2, “Methods and apparatus for synthesizing imaging agents, and intermediates thereof” (Lantheus Medical Imaging, Inc., priority 2010, dated 2020).)
